Experiments:
α1-Adrenergic receptor = α1-Adrenergic receptor binding, [^3 H] prazosin, rat brain cortex membranes; details: 0.2 nM [^3 H] prazocin, pH 7.4, 30 min, room temperature
Experimental: (§1) After the removal of nuclei by centrifugation at 1000×g for 10 min, P2 membranes were pelleted by centrifuging the supernatant at 22,000×g for 20 min. After two periods of centrifugation at 22,000×g and resuspension in fresh buffer, the membrane suspension (about 2 mg/ml protein) was ready for use. α1 -Adrenergic receptor binding assays (in triplicate) were carried out with 0.2 nM [^3 H] prazocin in a final volume of 1.0 ml of Tris buffer at pH 7.4 for 30 min at room temperature, using 10 μM phentolamine to determine non-specific binding. The concentrations of synthetic compounds for competition binding were in the range of 0.1-200 nM. α2 -adrenergic receptor binding assays (in triplicate) were carried out with 1 nM [^3 H] clonidine in the presence of 10 mM MgCl2 and in a final volume of 1.0 ml of Tris buffer at pH 7.4 for 30 min at room temperature, using 10 μM clonidine to determine non-specific binding. The concentrations of synthetic compounds for competition binding were in the range of 0.1-100 μM. […] The amount of membrane protein used in each assay was in the range of 300-400 μg, as determined by the method of Lowry et al. The results are given in Table 2. […] All other chemicals used were reagent grade and were purchased from Sigma (St. Louis, Mo.).

[1] = Antihypertensive activity in anesthetized cats (blood pressure); type: in vivo, cat; details: pentobarbital-anesthetized cats
Experimental: The pharmacological activities of the compounds of the present invention are described in the following experiment. In this experiment, the test compounds used are as follows.
Adult cats of either sex, 2-3 Kg, anesthetized with pentobarbital sodium (30 mg/Kg i.p.) were used. The trachea was intubated to provide artificial respiration with air by means of a Harvard respirator (respiration rate=6-20/min and colume=40-50 ml/stroke). Both femoral artery and vein were cannulated with PE 150 to monitor blood pressure and for drug administration respectively. Body temperature was maintained at 37.5° C. with a heating pad and monitored with a rectal thermometer. Blood pressure was measured with a Statham P23D pressure transducer via a polyethylene cannula conducted to a right femoral artery. Heart rate was measured through a Grass Model 7B tachograph preamplifier triggered by the pulses of arterial blood pressure. All data were recorded on a Grass Model 7B polygraph.

α2-adrenergic receptor = target: T1, α2-adrenergic receptor (Rattus norvegicus, UniProt P22909); assay: α2-Adrenergic receptor binding, [^3 H] clonidine, rat brain cortex membranes; details: 1 nM [^3 H] clonidine, 10 mM MgCl2, pH 7.4, 30 min, room temperature
T1 construct: from tissue; host or cells: rat brain cortex, P2 membranes
T1 sequence (P22909 1-465): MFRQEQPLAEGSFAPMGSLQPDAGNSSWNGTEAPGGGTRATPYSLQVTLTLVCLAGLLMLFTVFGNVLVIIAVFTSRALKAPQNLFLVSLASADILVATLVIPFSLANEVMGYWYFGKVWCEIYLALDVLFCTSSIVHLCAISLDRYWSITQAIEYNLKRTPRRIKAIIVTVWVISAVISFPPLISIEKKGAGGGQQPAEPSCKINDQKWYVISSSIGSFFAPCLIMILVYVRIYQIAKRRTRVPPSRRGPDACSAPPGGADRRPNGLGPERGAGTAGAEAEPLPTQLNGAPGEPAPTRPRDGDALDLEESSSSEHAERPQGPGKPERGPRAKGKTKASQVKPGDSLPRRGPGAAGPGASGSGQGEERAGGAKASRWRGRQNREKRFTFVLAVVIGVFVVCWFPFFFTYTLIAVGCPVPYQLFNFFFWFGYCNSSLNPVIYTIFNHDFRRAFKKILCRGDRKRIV
Experimental: as §1

[2] = acting as serotonin-S2 and α1-adrenoceptor antagonist, respectively; cited from earlier work

With `CSC1=Nc2ccccc2C2=NCC(CN3CCN(c4ccccc4)CC3)N12` (stereo not drawn) [Example 5, 3-[4-(1-Phenyl)piperazinyl]methyl-5-methylthio-2,3-dihydroimidazo[1,2-c]quinazoline] the Ki (α1-Adrenergic receptor) was > 10 nM.
In the case of `COc1ccccc1N1CCN(CC2CN=C3c4ccccc4N=C(SC)N32)CC1` (stereo not drawn) [Example 6, 3-{4-[1-(2-methoxyphenyl)piperazinyl]}methyl-5-methylthio-2,3-dihydroimidazo[1,2-c]quinazoline], the Ki (α1-Adrenergic receptor) is reported as 0.54 ± 0.09 nM and the “MBP (2 hr)” value ([1]; dose 1 mg/Kg) is reported as 70 mmHg.
`COc1cccc(N2CCN(CC3CN=C4c5ccccc5N=C(SC)N43)CC2)c1` (stereo not drawn) [Example 7, 3-{4-[1-(3-methoxyphenyl)piperazinyl]}methyl-5-methylthio-2,3-dihydroimidazo[1,2-c]quinazoline] showed a Ki (α2-adrenergic receptor) of 8360 ± 588 nM and a Ki (α1-Adrenergic receptor) of 48.9 ± 20.4 nM.
In the case of `CSC1=Nc2ccccc2C2=NCC(CN3CCN(c4ccccc4Cl)CC3)N12` (stereo not drawn) [Example 9, 3-{4-[1-(2-chlorophenyl)piperazinyl]}methyl-5-methylthio-2,3-dihydroimidazo[1,2-c]quinazoline], the Ki (α2-adrenergic receptor) is reported as 180 ± 7 nM, the Ki (α1-Adrenergic receptor) is reported as 0.34 ± 0.06 nM and the “MBP (2 hr)” value ([1]; dose 1 mg/Kg) is reported as 30 mmHg.
With `COC1=Nc2ccccc2C2=NCC(CN3CCN(c4ccccc4OC)CC3)N12` (stereo not drawn) [Example 12, 3-{4-[1-(2-Methoxyphenyl)piperazinyl]}methyl-5-methoxy-2,3-dihydroimidazo[1,2-c]quinazoline] the Ki (α1-Adrenergic receptor) was 0.07 ± 0.007 nM.
With `COC1=Nc2ccccc2C2=NCC(CN3CCN(c4cccc(OC)c4)CC3)N12` (stereo not drawn) [Example 14, 3-{4-[1-(3-methoxyphenyl)piperazinyl]}methyl-5-methoxy-2,3-dihydroimidazo[1,2-c]quinazoline] the Ki (α1-Adrenergic receptor) was > 100 nM.
With `COC1=Nc2ccccc2C2=NCC(CN3CCN(c4ccccc4Cl)CC3)N12` (stereo not drawn) [Example 16, 3-{4-[1-(2-chlorophenyl)piperazinyl]}methyl-5-methoxy-2,3-dihydroimidazo[1,2-c]quinazoline] the “MBP (2 hr)” value ([1]; dose 1 mg/Kg) was 23 mmHg.
With `O=C1Nc2ccccc2C2=NCC(CN3CCN(c4ccccc4)CC3)N12` (stereo not drawn) [Example 17, 3-(4-Phenyl-1-piperazinyl)-methyl-2,3-dihydroimidazo[1,2-c]quinazolin-5(6H)-one] the Ki (α2-adrenergic receptor) was 962 ± 29 nM.
In the case of `COc1ccccc1N1CCN(CC2CN=C3c4ccccc4NC(=O)N32)CC1` (stereo not drawn) [Example 18, 3-{4-[1-(2-methoxyphenyl)piperazinyl]}methyl-2,3-dihydroimidazo[1,2-c]quinazolin-5(6H)-one], the Ki (α1-Adrenergic receptor) is reported as 0.45 ± 0.09 nM and the “MBP (2 hr)” value ([1]; dose 1 mg/Kg) is reported as 50 mmHg.
For `COc1cccc(N2CCN(CC3CN=C4c5ccccc5NC(=O)N43)CC2)c1` (stereo not drawn) [Example 19, 3-{4-[1-(3-methoxyphenyl)piperazinyl]}methyl-2,3-dihydroimidazo[1,2-c]-quinazolin-5(6H)-one], the Ki (α1-Adrenergic receptor) was 5.76 ± 0.48 nM.
In the case of `O=C1Nc2ccccc2C2=NCC(CN3CCN(c4ccccc4Cl)CC3)N12` (stereo not drawn) [Example 21, 3-{4-[1-(2-chlorophenyl)piperazinyl]}methyl-2,3-dihydroimidazo[1,2-c]quinazolin-5(6H)-one], the Ki (α1-Adrenergic receptor) is reported as 0.58 ± 0.07 nM and the “MBP (2 hr)” value ([1]; dose 1 mg/Kg) is reported as 35 mmHg.
In the case of `CN1C(=O)N2C(=NCC2CN2CCN(c3ccccc3Cl)CC2)c2ccccc21` (stereo not drawn) [Example 22, 3-{4-[1-(2-chlorophenyl)piperazinyl]}methyl-6-methyl-2,3-dihydroimidazo[1,2-c]quinazolin-5(6H)-one], the “MBP (2 hr)” value ([1]; dose 1 mg/Kg) is reported as 50 mmHg.
For `COc1ccccc1N1CCN(CC2CN=C3c4ccccc4N(C)C(=O)N32)CC1` (stereo not drawn) [Example 23, 3-{4-[1-(2-methoxyphenyl)piperazinyl]}methyl-6-methyl-2,3-dihydroimidazo[1,2-c]quinazolin-5(6H)-one], the Ki (α1-Adrenergic receptor) was 0.36 ± 0.05 nM, the “MBP (2 hr)” value ([1]; dose 0.25 mg/Kg) was 40 mmHg and the “MBP (2 hr)” value ([1]; dose 1 mg/Kg) was 63 mmHg.
For `COc1ccccc1N1CCN(CCn2c(=O)[nH]c3ccccc3c2=O)CC1.Cl` [SGB-1534, reference compound], the “antihypertensive activity (in words), background art” value [2] is given as “found to have antihypertensive activities” and the Ki (α1-Adrenergic receptor) is given as 0.25 ± 0.06 nM.
In the case of `O=C(c1ccc(F)cc1)C1CCN(CCn2c(=S)[nH]c3ccccc3c2=O)CC1` [thioketanserin], the “antihypertensive activity (in words), background art” value [2] is listed as “found to have antihypertensive activities”.
